Values after ≈ are worked out from the molar mass of the structure shown. Like-named read-outs stand apart in the source and are kept apart here.

What all share (format): physicochemical
Data set [1] can be described thus: Storage stability of crystalline forms at 40° C. for 20 days, purity and content by HPLC. The note with it: for Content: external standard method; for Purity: internal standard method. As to the method:
Crystalline forms II, III, VI and VII (obtained through embodiment 3) are each placed in thermostatic containers at a temperature of 40° C. and stored for 20 days, with the stability of these crystalline samples being studied using the method of High Performance Liquid Chromatography.
1. Purity Measurement of the Sample
Chromatographic conditions: Octadecyl silane chemically bonded silica is used as packing; a mixed solution of 10 mmol/L phosphate buffer (adjusted to pH 7.0 with sodium hydroxide) and acetonitrile in the ratio 2:7 by volume acts as the mobile phase; column temperature 40° C.; and detection wavelength 220 nm. Purity is measured using an internal standard method.
In the mobile phase, crystalline forms II, III, VI and VII are distributed into 1 mg/mL solutions, 10 μL of each of which are then passed into a liquid chromatograph, with their chromatograms being recorded.
The reference sample purity measurement method was used, with measurements being made using an external standard method, the results are shown in Table I.

A short description of data set [2]: Determination of crystalline stability (pharmacopoeia stability assessment method). The arrangement: key: ✓: stable; x: unstable. The note with it: for Crystalline stability, influencing factor: high temperature / Crystalline stability, influencing factor: high humidity / Crystalline stability, influencing factor: illumination: exposed for 10 days; for Crystalline stability, influencing factor: high temperature: 60° C.; for Crystalline stability, influencing factor: high humidity: 92.5% RH; for Crystalline stability, influencing factor: high humidity / Crystalline stability, long term testing (6 months) / Crystalline stability, long term testing (9 months) / Crystalline stability, long term testing (12 months): 25° C.; for Crystalline stability, influencing factor: illumination: 4500 lx; for Crystalline stability, accelerated testing: hermetically sealed for 6 months, 40° C., 75% RH; for Crystalline stability, long term testing (6 months) / Crystalline stability, long term testing (9 months) / Crystalline stability, long term testing (12 months): hermetically sealed, 60% RH. As to the method: 4. Determination of Crystalline Stability
Measured using the pharmacopoeia stability assessment method: • 1) Influencing factor testing (exposed for 10 days): high temperature (60° C.), illumination (4500 lx), high humidity (92.5% RH, 25° C.) • 2) Accelerated testing (hermetically sealed for 6 months): temperature 40° C., humidity 75% RH • 3) Long term testing (hermetically sealed for 12 months): temperature 25° C., humidity 60% RH

The nature of data set [3]: Measurement of water solubility (HPLC, external standard method). An excerpt: 3. Measurement of Water Solubility
The HPLC method was used to determine water solubility, with measurements being made using an external standard method.

The mark [4] stands for this setting: After storage in thermostatically controlled containers at 40° C. for 20 days.

As to `COc1ccc2cccc(CCNC(C)=O)c2c1` [Crystalline form VII, N-[2-(7-methoxy-1-naphthyl)ethyl]acetamide], in data set [1] (setting [4]), the Content stood at 99.6% and the Purity came out at 99.7%. Besides, in data set [1] (Before storage), the Content is listed as 99.8% and the Purity is given as 99.8%. Also, in data set [2], the “Crystalline stability, influencing factor: high temperature” value (“Crystalline stability … high temperature” below) was “✓”; the “Crystalline stability, influencing factor: high humidity” value (from here on “Crystalline stability … high humidity”) is reported as “✓”; the “Crystalline stability, influencing factor: illumination” value (“Crystalline stability … illumination” below) is listed as “✓”; the “Crystalline stability, accelerated testing” value is reported as “✓”. In addition, in data set [2], the “Crystalline stability, long term testing (6 months)” value (from here on “Crystalline stability … (6 months)”) is recorded as “✓”; the “Crystalline stability, long term testing (9 months)” value (“Crystalline stability … (9 months)” for short) was “✓”; the “Crystalline stability, long term testing (12 months)” value (“Crystalline stability … (12 months)” for short) is on record as “✓”. Further, the solubility in data set [3] (read-out: Solubility) was found to be 330 µg/mL (≈ 1360 µM).

As for `COc1ccc2cccc(CCNC(C)=O)c2c1` [Crystalline form VI, N-[2-(7-methoxy-1-naphthyl)ethyl]acetamide], in data set [1] (setting [4]), the Content was 99.1% and the Purity was found to be 99.6%. In data set [1] (Before storage), this compound came in with a Content of 99.3% and a Purity of 99.7%. Further, in data set [2], the “Crystalline stability … high temperature” value is given as “x*”; the “Crystalline stability … high humidity” value is on record as “✓”; the “Crystalline stability … illumination” value was “✓”; the “Crystalline stability, accelerated testing” value was “✓”. In addition, in data set [2], the “Crystalline stability … (6 months)” value was “✓”; the “Crystalline stability … (9 months)” value is listed as “✓”; the “Crystalline stability … (12 months)” value is given as “x”.

For the compound `COc1ccc2cccc(CCNC(C)=O)c2c1` [Crystalline form III, N-[2-(7-methoxy-1-naphthyl)ethyl]acetamide], the Content in data set [1] (setting [4]) amounted to 99.4%; in data set [1] (Before storage), 99.5%. In addition, the values for the Purity in data set [1] (setting [4]) and in data set [1] (Before storage) were 99.3% and 99.9%, respectively.

In data set [1] (setting [4]), `COc1ccc2cccc(CCNC(C)=O)c2c1` [Crystalline form II, N-[2-(7-methoxy-1-naphthyl)ethyl]acetamide] gave a Content of 99.6% and a Purity of 99.3%. Also, in data set [1] (Before storage), the Content was determined as 99.5% and the Purity is 99.7%. In data set [2], the “Crystalline stability … high temperature” value was “✓*”; the “Crystalline stability … high humidity” value was “✓”; the “Crystalline stability … illumination” value is on record as “✓”; the “Crystalline stability, accelerated testing” value is on record as “✓”. Further, in data set [2], the “Crystalline stability … (6 months)” value was “✓”; the “Crystalline stability … (9 months)” value is listed as “✓”; the “Crystalline stability … (12 months)” value is “✓”. Besides, the solubility in data set [3] is 301 µg/mL (≈ 1240 µM).

As usually defined, the solubility is the dissolved amount per volume that the medium holds.

For the origin of these results see patent US9527803B2, “Crystal form VII of agomelatine, preparation method and use thereof and pharmaceutical composition containing same” (LES LABORATOIRES SERVIER, priority 2011, dated 2016).
